# Laboratory results: patent US6723332B2 (dated 2004)
row,melting point,SMILES
1,273 to 275 °C,O=C(Nc1ccc(OC(F)(F)F)cc1)C1C=Nc2cccc(=O)n21 (stereo not drawn)
2,274 to 277 °C (dec.),O=C(Nc1cccc(C(F)(F)F)c1F)C1C=Nc2cccc(=O)n21 (stereo not drawn)

# The next lines start with the molecule.
row,SMILES,melting point
1,Cc1cc(=O)n2c(C(=O)Nc3cc(F)ccc3F)c[nH]c2c1,> 285 °C (dec.)
2,CCOc1ccc(NC(=O)C2C=Nc3cccc(=O)n32)c(F)c1 (stereo not drawn),> 216 °C (dec.)
3,CN(C)CCOc1ccc(NC(=O)C2C=Nc3cccc(=O)n32)cc1 (stereo not drawn),198 to 210 °C
4,Cc1ccc(F)c(NC(=O)C2C=Nc3cccc(=O)n32)c1 (stereo not drawn),280 to 285 °C (dec.)
